These are literature values, as cited in paper PMC9610285 (Pharmaceutics, 2022).

Structures are written as SMILES.

The subject of this data set is MAO-B. Also on record: method as in earlier work. To be noted: main metabolite of rasagiline; cited from earlier work.

As to `NC1CCc2ccccc21` (stereo not shown) [S1-1-aminoindane], the MAO-B inhibition entry is listed as “not a MAO-B inhibitor”.
